Measurements published in ChEMBL document CHEMBL1142718, “Novel indolylindazolylmaleimides as inhibitors of protein kinase C-beta: synthesis, biological activity, and cardiovascular safety” (J Med Chem, 2005).

Key:
[1] = Inhibition of Vascular endothelial growth factor receptor in P19 cells; type: cell-based, Mus musculus
[2] = Inhibition of Casein kinase 1 in P19 cells; type: cell-based, Mus musculus
[3] = biological target: Platelet-derived growth factor receptor (Mus musculus, UniProt P05622+P26618); test: Inhibition of Platelet-derived growth factor receptor in P19 cells; type: cell-based
[4] = biological target: Cyclin-dependent kinase 1 (Mus musculus, UniProt P11440); test: Inhibition of Cyclin-dependent kinase 1 in P19 cells; type: cell-based
[5] = biological target: Casein kinase 2 (Mus musculus, UniProt Q60737+P67871+O54833+Q8CH19); test: Inhibition of Casein kinase 2 of P19 cells; type: cell-based
[6] = Inhibition of Calcium/calmodulin-dependent protein kinase type II in P19 cells; type: cell-based, Mus musculus
[7] = Inhibition of Protein Kinase A in P19 cells; type: cell-based, Mus musculus
[8] = biological target: Insulin receptor (Mus musculus, UniProt P15208); test: Inhibition of Insulin receptor kinase in P19 cells; type: cell-based
[9] = biological target: Protein kinase C delta type (Homo sapiens, UniProt Q05655); test: Inhibition of Protein kinase C delta
[10] = biological target: Mitogen-activated protein kinase 1 (Mus musculus, UniProt P63085); type: cell-based, P19
Description: Inhibition of Mitogen-activated protein kinase/extracellular signal-regulated kinase 2 in P19 cells

[11] = biological target: Epidermal growth factor receptor (Mus musculus, UniProt Q01279); test: Inhibition of Epidermal growth factor receptor in P19 cells; type: cell-based
[12] = biological target: T1, Protein kinase C zeta type (Homo sapiens, UniProt Q05513); test: Inhibition of Protein kinase C zeta
T1 sequence (Q05513 whole entry): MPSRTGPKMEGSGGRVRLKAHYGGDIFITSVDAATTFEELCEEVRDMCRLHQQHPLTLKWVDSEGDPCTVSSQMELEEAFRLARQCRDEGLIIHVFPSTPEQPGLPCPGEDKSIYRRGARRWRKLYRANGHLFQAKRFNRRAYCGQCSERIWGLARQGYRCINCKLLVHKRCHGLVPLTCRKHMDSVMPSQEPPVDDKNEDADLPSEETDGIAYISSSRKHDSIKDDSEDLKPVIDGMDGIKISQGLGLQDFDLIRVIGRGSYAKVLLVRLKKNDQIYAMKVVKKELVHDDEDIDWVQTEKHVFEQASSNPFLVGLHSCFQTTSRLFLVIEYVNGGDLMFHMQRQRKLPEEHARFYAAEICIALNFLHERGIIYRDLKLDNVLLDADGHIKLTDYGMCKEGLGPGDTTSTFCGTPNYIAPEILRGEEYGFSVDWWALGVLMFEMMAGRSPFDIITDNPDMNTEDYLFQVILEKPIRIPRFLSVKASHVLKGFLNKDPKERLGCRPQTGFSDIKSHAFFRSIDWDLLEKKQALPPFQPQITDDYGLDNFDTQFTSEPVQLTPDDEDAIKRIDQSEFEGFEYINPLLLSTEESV

[13] = biological target: T2, Protein kinase C beta type (Homo sapiens, UniProt P05771); test: Inhibition of human Protein kinase C beta 1 using [gamma-33P]-ATP
[14] = Inhibition of Protein kinase C epsilon
[15] = biological target: T2, Protein kinase C beta type; test: Inhibition of IL-8 release by HEK293 cells expressing PKC-beta2; type: functional, cell-based
[16] = biological target: Protein kinase C alpha type (Homo sapiens, UniProt P17252); test: Inhibition of human Protein kinase C alpha using [gamma-33P]-ATP
[17] = biological target: T2, Protein kinase C beta type; test: Inhibition of human Protein kinase C beta 2 using [gamma-33P]-ATP
[18] = biological target: Voltage-gated inwardly rectifying potassium channel KCNH2 (Homo sapiens, UniProt Q12809)
Description: Inhibition of [3H]astemizole binding to Potassium channel HERG

[19] = biological target: Protein kinase C gamma type (Homo sapiens, UniProt P05129); test: Inhibition of human Protein kinase C gamma using [gamma-33P]-ATP
[20] = biological target: T3, Protein kinase C zeta type (Homo sapiens) (UniProt Q05513); test: Inhibition of Protein kinase C zeta at 10 uM
T3 sequence (whole entry): T1 sequence (Q05513 whole entry)

Chain of Cyclin-dependent kinase 1 (P11440 whole entry): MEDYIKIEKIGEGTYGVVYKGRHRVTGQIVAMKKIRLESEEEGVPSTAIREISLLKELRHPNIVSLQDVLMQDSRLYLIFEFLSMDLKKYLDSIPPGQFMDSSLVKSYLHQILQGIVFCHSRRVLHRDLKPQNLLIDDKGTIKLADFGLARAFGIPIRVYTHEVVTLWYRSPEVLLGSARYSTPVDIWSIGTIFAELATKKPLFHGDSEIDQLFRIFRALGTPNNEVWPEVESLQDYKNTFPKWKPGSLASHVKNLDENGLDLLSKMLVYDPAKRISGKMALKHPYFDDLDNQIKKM
Chain of Mitogen-activated protein kinase 1 (P63085 whole entry): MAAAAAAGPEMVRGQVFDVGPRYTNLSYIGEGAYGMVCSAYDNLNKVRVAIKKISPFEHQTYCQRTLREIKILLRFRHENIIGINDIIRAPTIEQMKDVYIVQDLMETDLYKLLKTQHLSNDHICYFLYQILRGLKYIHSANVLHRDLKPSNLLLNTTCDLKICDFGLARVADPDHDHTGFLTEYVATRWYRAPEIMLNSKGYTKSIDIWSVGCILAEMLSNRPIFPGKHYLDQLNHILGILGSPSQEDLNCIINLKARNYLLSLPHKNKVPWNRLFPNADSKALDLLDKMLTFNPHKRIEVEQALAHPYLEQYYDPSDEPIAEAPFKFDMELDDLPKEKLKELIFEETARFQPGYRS
Chain of Insulin receptor (P15208 28-748 limits assumed): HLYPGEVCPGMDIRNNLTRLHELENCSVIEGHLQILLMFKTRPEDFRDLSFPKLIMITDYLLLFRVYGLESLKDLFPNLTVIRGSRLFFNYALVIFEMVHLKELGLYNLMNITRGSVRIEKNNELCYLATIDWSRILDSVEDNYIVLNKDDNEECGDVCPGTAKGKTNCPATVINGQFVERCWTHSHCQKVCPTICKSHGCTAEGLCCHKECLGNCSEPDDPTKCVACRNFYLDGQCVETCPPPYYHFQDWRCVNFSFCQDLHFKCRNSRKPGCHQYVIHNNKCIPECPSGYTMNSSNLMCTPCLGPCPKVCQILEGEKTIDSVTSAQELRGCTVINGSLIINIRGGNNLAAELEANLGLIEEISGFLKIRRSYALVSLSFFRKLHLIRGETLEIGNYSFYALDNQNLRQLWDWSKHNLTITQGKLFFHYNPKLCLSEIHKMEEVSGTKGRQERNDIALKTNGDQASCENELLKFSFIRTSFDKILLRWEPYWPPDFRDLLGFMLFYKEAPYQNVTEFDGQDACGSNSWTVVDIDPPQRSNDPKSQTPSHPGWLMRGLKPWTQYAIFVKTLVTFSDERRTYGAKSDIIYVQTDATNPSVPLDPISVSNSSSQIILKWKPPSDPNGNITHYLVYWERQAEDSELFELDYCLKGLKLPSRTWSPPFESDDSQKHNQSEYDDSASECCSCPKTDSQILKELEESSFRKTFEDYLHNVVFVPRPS
Chain of Insulin receptor (P15208 753-1372 limits assumed): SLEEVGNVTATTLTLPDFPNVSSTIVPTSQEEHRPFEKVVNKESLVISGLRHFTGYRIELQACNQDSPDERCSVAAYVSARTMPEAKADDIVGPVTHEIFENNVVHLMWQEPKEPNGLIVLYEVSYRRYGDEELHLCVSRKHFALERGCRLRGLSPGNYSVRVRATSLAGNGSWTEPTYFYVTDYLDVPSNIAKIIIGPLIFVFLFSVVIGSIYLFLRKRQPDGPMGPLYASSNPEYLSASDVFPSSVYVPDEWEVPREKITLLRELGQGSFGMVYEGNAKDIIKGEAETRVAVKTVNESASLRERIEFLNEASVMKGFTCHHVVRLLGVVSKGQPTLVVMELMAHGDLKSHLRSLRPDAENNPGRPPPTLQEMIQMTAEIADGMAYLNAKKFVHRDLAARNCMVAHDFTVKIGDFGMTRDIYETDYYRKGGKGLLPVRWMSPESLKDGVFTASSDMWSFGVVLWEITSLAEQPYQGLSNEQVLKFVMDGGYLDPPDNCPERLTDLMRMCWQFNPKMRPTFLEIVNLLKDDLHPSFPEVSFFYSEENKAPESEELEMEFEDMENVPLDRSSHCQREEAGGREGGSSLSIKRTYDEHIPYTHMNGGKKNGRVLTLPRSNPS
Chain of Voltage-gated inwardly rectifying potassium channel KCNH2 (Q12809 whole entry): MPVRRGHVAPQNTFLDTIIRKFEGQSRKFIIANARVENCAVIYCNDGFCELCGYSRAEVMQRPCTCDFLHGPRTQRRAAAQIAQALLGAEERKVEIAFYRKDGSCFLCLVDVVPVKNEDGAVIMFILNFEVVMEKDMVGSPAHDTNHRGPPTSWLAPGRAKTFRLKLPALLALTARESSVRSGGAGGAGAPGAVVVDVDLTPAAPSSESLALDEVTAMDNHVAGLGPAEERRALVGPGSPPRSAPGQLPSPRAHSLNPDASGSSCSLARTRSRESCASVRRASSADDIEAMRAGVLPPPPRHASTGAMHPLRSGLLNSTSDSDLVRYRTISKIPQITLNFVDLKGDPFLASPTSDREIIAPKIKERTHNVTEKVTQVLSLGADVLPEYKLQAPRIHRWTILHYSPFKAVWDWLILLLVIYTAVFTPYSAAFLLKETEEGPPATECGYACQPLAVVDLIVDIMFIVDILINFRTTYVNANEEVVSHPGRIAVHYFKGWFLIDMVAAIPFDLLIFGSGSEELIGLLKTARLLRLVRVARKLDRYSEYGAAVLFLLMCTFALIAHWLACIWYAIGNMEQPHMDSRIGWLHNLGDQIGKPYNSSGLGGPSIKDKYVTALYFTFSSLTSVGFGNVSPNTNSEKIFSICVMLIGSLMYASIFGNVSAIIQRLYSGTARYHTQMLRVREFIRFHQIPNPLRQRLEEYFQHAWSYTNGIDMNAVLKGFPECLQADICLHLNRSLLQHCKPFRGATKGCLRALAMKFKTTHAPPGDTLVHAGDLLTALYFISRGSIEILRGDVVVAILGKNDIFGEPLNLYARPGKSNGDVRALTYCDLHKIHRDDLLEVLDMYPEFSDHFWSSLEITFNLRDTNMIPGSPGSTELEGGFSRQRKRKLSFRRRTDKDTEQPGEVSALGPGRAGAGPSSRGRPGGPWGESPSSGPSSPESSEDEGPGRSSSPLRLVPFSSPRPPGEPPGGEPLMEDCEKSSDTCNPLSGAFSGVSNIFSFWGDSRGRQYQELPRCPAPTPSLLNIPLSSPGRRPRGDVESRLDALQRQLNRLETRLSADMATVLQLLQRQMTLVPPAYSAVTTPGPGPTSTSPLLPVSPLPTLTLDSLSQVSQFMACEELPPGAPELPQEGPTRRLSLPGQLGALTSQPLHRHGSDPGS
Chain of Protein kinase C delta type (Q05655 whole entry): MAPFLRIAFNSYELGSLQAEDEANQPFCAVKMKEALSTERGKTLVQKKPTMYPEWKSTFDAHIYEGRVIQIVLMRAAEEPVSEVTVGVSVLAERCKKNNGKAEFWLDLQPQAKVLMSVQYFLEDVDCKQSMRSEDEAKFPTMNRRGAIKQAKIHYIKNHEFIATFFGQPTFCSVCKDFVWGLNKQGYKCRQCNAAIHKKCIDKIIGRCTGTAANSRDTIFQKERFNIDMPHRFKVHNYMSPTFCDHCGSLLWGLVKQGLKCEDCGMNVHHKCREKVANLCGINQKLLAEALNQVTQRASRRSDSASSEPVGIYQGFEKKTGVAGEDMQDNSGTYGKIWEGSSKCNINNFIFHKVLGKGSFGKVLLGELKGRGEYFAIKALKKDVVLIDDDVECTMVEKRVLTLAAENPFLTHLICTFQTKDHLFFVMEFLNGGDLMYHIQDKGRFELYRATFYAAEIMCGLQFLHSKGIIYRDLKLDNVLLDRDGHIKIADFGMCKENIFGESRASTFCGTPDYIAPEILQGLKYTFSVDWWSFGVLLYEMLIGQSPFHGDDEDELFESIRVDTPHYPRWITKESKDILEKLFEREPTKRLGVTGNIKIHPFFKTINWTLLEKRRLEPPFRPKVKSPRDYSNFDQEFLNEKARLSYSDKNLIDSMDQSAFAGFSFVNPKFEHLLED

Row | Compound | IC50 [2] | IC50 [3] | IC50 [4] | IC50 [5] | IC50 [6] | IC50 [7] | IC50 [8] | IC50 [9] | IC50 [10] | IC50 [11] | IC50 [12] | IC50 [13] | IC50 [14] | IC50 [15] | IC50 [16] | IC50 [17] | IC50 [19] | inhibition [20] | IC50 [1] | Ki [18]
1 | CN[C@@H]1C[C@H]2O[C@@](C)([C@@H]1OC)n1c3ccccc3c3c4c(c5c6ccccc6n2c5c31)C(=O)NC4 [STAUROSPORINE] | 1400 nM | 2 nM | 8 nM | > 10000 nM | 6 nM | 4 nM | – | – | – | – | – | – | – | – | – | – | – | – | 14 nM | –
2 | CN1CCN(CCCn2nc(C3=C(c4cn(-c5ccc6ccccc6c5)c5ccccc45)C(=O)NC3=O)c3ccccc32)CC1 | – | – | – | – | – | – | – | – | – | – | – | 62 nM | – | – | 320 nM | 92 nM | – | – | – | 290 nM
3 | CN(C)CCCn1nc(C2=C(c3cn(-c4cccc5ccccc45)c4ccccc34)C(=O)NC2=O)c2ccccc21 | > 10000 nM | > 10000 nM | 1900 nM | > 10000 nM | > 10000 nM | > 10000 nM | > 10000 nM | 2200 nM | > 10000 nM | > 10000 nM | > 10000 nM | 87 nM | 4200 nM | 600 nM | 1200 nM | – | 3400 nM | – | 6900 nM | –
4 | CN(C)CCCn1nc(C2=C(c3cn(-c4cccnc4)c4ccccc34)C(=O)NC2=O)c2ccccc21 | > 10000 nM | 5200 nM | 310 nM | > 10000 nM | 3800 nM | > 10000 nM | > 10000 nM | 250 nM | > 10000 nM | > 10000 nM | 4400 nM | 19 nM | 330 nM | 82 nM | 120 nM | – | 210 nM | – | 3700 nM | –
5 | CN(C)CCCn1nc(C2=C(c3cn(-c4ccc5ccccc5c4)c4ccccc34)C(=O)NC2=O)c2ccccc21 | > 10000 nM | 5900 nM | 1300 nM | > 10000 nM | 6100 nM | > 10000 nM | > 10000 nM | 490 nM | > 10000 nM | > 10000 nM | 6200 nM | 33 nM | 330 nM | 24 nM | – | – | 110 nM | – | 1000 nM | –
6 | O=C1NC(=O)C(c2nn(CCCN3CCOCC3)c3ccccc23)=C1c1cn(-c2ccc3ccccc3c2)c2ccccc12 | – | – | – | – | – | – | – | – | – | – | – | 190 nM | – | 72 nM | – | – | – | – | – | 850 nM
7 | CN(C)CCCn1nc(C2=C(c3cn(-c4cncc5ccccc45)c4ccccc34)C(=O)NC2=O)c2ccccc21 | – | – | – | – | – | – | – | – | – | – | – | 92 nM | – | 86 nM | – | – | 250 nM | – | – | –
8 | CN(C)CCCn1nc(C2=C(c3cn(-c4cccs4)c4ccccc34)C(=O)NC2=O)c2ccccc21 | > 10000 nM | 2200 nM | – | > 10000 nM | 7000 nM | 6200 nM | > 10000 nM | 86 nM | > 10000 nM | > 10000 nM | – | 15 nM | 140 nM | 75 nM | 220 nM | 10 nM | 280 nM | 57% | 5000 nM | –

Further lines, with some results ahead:

Row | IC50 [2] | IC50 [3] | IC50 [4] | IC50 [5] | IC50 [6] | IC50 [7] | IC50 [8] | IC50 [9] | IC50 [10] | IC50 [11] | IC50 [12] | IC50 [13] | IC50 [14] | IC50 [15] | IC50 [16] | IC50 [17] | IC50 [19] | inhibition [20] | Compound | IC50 [1] | Ki [18]
9 | > 10000 nM | 5900 nM | 1600 nM | > 10000 nM | > 10000 nM | > 10000 nM | > 10000 nM | 31 nM | > 10000 nM | > 10000 nM | 5700 nM | 7 nM | 140 nM | 20 nM | – | – | – | – | CN(C)CCCn1nc(C2=C(c3cn(-c4cnc5ccccc5c4)c4ccccc34)C(=O)NC2=O)c2ccccc21 | > 10000 nM | –
10 | – | – | – | – | – | – | – | – | – | – | – | 120 nM | – | 170 nM | – | – | – | – | O=C1NC(=O)C(c2nn(CCCN3CCCC3)c3ccccc23)=C1c1cn(-c2ccc3ccccc3c2)c2ccccc12 | – | 11 nM
11 | > 10000 nM | > 10000 nM | > 10000 nM | > 10000 nM | 5600 nM | > 10000 nM | > 10000 nM | 1500 nM | > 10000 nM | > 10000 nM | > 10000 nM | 86 nM | 3100 nM | 630 nM | – | – | – | – | CN(C)CCCn1nc(C2=C(c3cn(-c4csc5ccccc45)c4ccccc34)C(=O)NC2=O)c2ccccc21 | > 10000 nM | –
12 | – | – | – | – | – | – | – | – | – | – | – | 46 nM | – | – | 150 nM | 13 nM | 370 nM | – | CN(C)CCCn1nc(C2=C(c3cn(-c4ccccc4)c4ccccc34)C(=O)NC2=O)c2ccccc21 | – | –
13 | – | – | – | – | – | – | – | – | – | – | – | 460 nM | – | – | 1000 nM | 220 nM | – | – | O=C1NC(=O)C(c2cn(-c3cccnc3)c3ccccc23)=C1c1[nH]nc2ccccc12 | – | –
